Laboratory results reported in ChEMBL document CHEMBL1151963 (J Med Chem, 2009).
pIC50: −log10 of the molar value. Blank lines part the entries; values can stand above or below the molecule they belong to. Active and inactive are the calls of the source. The calls are words filed in the database; no cut-off is given here.

Legend:
[1] = target: Serine/threonine-protein kinase Chk1 (Homo sapiens, UniProt O14757); assay: Inhibition of CHK1 after 1 hr by mobility shift electrophoresis assay
[2] = Inhibition of PKA after 1 hr by mobility shift electrophoresis assay
[3] = Inhibition of PIKK assessed as blockade of VP16-induced phosphorylation of p53 at S15 at 3 umol/L
[4] = target: Phosphatidylinositol 4,5-bisphosphate 3-kinase catalytic subunit alpha isoform (Homo sapiens, UniProt P42336); assay: Inhibition of PI3Kalpha expressed in Escherichia coli by microtiter plate-based fluorescence polarization assay
Phosphatidylinositol 4,5-bisphosphate 3-kinase catalytic subunit alpha isoform, sequence (P42336 whole entry, canonical isoform): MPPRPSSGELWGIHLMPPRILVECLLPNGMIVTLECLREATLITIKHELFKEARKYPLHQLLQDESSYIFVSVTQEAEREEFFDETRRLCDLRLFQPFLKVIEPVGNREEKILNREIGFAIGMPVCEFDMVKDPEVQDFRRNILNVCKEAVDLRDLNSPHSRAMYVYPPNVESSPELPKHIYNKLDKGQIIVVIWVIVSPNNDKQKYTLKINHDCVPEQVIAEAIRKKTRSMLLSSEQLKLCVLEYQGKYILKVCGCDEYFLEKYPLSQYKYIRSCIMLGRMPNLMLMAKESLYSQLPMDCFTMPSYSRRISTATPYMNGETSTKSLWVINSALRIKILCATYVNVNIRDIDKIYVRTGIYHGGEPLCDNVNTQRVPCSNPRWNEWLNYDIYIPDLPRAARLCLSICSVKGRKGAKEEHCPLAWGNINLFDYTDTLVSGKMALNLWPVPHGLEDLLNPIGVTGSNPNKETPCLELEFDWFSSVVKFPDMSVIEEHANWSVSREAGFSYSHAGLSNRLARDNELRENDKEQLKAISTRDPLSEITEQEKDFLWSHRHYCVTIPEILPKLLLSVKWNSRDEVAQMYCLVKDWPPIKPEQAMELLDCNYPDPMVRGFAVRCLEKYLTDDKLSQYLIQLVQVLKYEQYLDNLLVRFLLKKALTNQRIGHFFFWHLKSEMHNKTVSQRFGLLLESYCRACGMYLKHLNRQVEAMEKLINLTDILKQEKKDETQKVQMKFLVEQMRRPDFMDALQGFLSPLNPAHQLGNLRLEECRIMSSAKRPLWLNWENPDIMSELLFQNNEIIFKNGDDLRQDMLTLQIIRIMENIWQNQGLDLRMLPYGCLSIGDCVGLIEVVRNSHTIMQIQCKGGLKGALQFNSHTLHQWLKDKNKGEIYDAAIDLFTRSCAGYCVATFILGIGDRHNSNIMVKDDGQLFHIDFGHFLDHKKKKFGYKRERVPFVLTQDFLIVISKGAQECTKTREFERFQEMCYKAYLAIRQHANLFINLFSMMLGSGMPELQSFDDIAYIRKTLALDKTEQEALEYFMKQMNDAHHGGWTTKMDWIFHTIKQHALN

[5] = target: Cyclin-dependent kinase 2 (Homo sapiens, UniProt P24941); assay: Inhibition of CDK2/cyclinA after 1 hr by mobility shift electrophoresis assay
[6] = Inhibition of PIKK assessed as blockade of VP16-induced phosphorylation of ChK1 at S345 at 3 umol/L
[7] = target: Tyrosine-protein kinase ABL1 (Homo sapiens, UniProt P00519); assay: Inhibition of ABL1 after 1 hr by mobility shift electrophoresis assay
[8] = target: T1, Serine/threonine-protein kinase mTOR (Homo sapiens, UniProt P42345); assay: Inhibition of mTOR complex 2 in human U87MG cells assessed as suppression of AKT phosphorylation at S473 treated for 6 hrs by immunoblotting analysis; type: cell-based; conditions: U-87MG ATCC
Mus musculus [9] = assay: Inhibition of PI3K in BALB/c nu/nu mouse bearing PTEN-null human PC3MM2 xenograft tumor assessed as suppression of AKT phosphorylation at T308 at 50 mg/kg, ip administered as single dose for 4 hrs; type: functional, organism-based; set-up: dose 50 mg/kg
[10] = target: Ribosomal protein S6 kinase alpha-1 (Homo sapiens, UniProt Q15418); assay: Inhibition of RSK1 after 1 hr by mobility shift electrophoresis assay
[11] = target: Protein kinase C beta type (Homo sapiens, UniProt P05771); assay: Inhibition of PKCbeta after 1 hr by mobility shift electrophoresis assay
[12] = target: T1, Serine/threonine-protein kinase mTOR; assay: Inhibition of mTOR complex 1 in human PC3MM2 cells assessed as suppression of S6K phosphorylation at T389 treated for 6 hrs by immunoblotting analysis; type: cell-based
[13] = Antitumor activity against human U87MG cells xenografted in BALB/c nu/nu mouse at 50 mg/kg, ip administered twice daily for 5 days measured on day 7 relative to control; type: functional, U-87MG ATCC; conditions: route intraperitoneal
[14] = target: Phosphatidylinositol 4,5-bisphosphate 3-kinase catalytic subunit gamma isoform (Homo sapiens, UniProt P48736); assay: Inhibition of PI3Kgamma
[15] = target: T1, Serine/threonine-protein kinase mTOR; assay: Inhibition of flag-tagged truncated human mTOR (1360-2549) expressed in HEK293 cells by DELFIA assay; type: cell-based
[16] = target: Protein kinase C alpha type (Homo sapiens, UniProt P17252); assay: Inhibition of PKCalpha after 1 hr by mobility shift electrophoresis assay
[17] = target: Mitogen-activated protein kinase kinase kinase kinase 2 (Homo sapiens, UniProt Q12851); assay: Inhibition of GCK after 1 hr by mobility shift electrophoresis assay
[18] = target: T1, Serine/threonine-protein kinase mTOR; assay: Inhibition of mTOR complex 1 in human U87MG cells assessed as suppression of S6K phosphorylation at T389 treated for 6 hrs by immunoblotting analysis; type: cell-based; conditions: U-87MG ATCC
[19] = target: Tyrosine-protein kinase HCK (Homo sapiens, UniProt P08631); assay: Inhibition of HCK after 1 hr by mobility shift electrophoresis assay
Mus musculus [20] = assay: Inhibition of mTOR complex 1 in BALB/c nu/nu mouse bearing PTEN-null human PC3MM2 xenograft tumor assessed as suppression of S6K phosphorylation at T389 at 50 mg/kg, ip administered as single dose for 6 hrs; type: functional, organism-based; set-up: dose 50 mg/kg
[21] = target: Mitogen-activated protein kinase 1 (Homo sapiens, UniProt P28482); assay: Inhibition of ERK2 after 1 hr by mobility shift electrophoresis assay
Mitogen-activated protein kinase 1, sequence (P28482 whole entry): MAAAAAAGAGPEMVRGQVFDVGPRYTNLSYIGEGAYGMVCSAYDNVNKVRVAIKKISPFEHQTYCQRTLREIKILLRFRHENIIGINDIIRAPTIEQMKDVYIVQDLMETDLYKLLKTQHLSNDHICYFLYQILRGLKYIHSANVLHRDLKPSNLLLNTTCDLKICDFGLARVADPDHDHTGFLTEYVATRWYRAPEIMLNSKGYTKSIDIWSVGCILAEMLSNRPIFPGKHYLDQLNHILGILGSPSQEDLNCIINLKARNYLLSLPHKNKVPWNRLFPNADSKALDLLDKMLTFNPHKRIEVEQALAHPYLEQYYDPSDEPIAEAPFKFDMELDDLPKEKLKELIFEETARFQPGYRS

[22] = target: Tyrosine-protein kinase Fyn (Homo sapiens, UniProt P06241); assay: Inhibition of FYN after 1 hr by mobility shift electrophoresis assay
[23] = Antitumor activity against human U87MG cells xenografted in BALB/c nu/nu mouse at 50 mg/kg, ip administered once daily for 5 days measured on day 7 relative to control; type: functional, U-87MG ATCC; conditions: route intraperitoneal
[24] = target: Mitogen-activated protein kinase 14 (Homo sapiens, UniProt Q16539); assay: Inhibition of p38alpha after 1 hr by mobility shift electrophoresis assay
Mitogen-activated protein kinase 14, sequence (Q16539 whole entry): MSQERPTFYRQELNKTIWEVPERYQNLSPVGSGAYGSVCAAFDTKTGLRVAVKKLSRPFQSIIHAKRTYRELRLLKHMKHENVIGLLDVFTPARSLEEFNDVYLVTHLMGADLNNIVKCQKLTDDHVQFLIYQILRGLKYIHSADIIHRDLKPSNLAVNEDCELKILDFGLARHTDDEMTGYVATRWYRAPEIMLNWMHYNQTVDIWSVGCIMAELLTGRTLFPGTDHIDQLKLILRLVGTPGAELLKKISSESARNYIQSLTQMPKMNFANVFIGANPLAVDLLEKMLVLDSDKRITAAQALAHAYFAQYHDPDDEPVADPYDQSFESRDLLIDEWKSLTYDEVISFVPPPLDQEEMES

[25] = target: Rho-associated protein kinase 1 (Homo sapiens, UniProt Q13464); assay: Inhibition of ROCK1 after 1 hr by mobility shift electrophoresis assay
[26] = target: Tyrosine-protein kinase Lyn (Homo sapiens, UniProt P07948); assay: Inhibition of LYN after 1 hr by mobility shift electrophoresis assay
[27] = target: Cyclin-dependent kinase 1/cyclin B1 (Homo sapiens, UniProt P06493); assay: Inhibition of CDK1/cyclinB after 1 hr by mobility shift electrophoresis assay; type: protein-complex assay
[28] = target: RAC-alpha serine/threonine-protein kinase (Homo sapiens, UniProt P31749); assay: Inhibition of PKBalpha after 1 hr by mobility shift electrophoresis assay
[29] = target: Inhibitor of nuclear factor kappa-B kinase subunit alpha (Homo sapiens, UniProt O15111); assay: Inhibition of IKKalpha after 1 hr by mobility shift electrophoresis assay
[30] = target: Proto-oncogene tyrosine-protein kinase Src (Homo sapiens, UniProt P12931); assay: Inhibition of SRC after 1 hr by mobility shift electrophoresis assay
[31] = Metabolic stability in nude mouse microsomes assessed as half life at 1 uM by HPLC-MS/MS analysis; type: ADME, Microsome
Mus musculus [32] = assay: Inhibition of mTOR complex 2 in BALB/c nu/nu mouse bearing PTEN-null human PC3MM2 xenograft tumor assessed as suppression of P-AKT phosphorylation at S473 at 50 mg/kg, ip administered as single dose for 4 to 6 hrs; type: functional, organism-based; set-up: dose 50 mg/kg
[33] = target: MAP kinase-activated protein kinase 2 (Homo sapiens, UniProt P49137); assay: Inhibition of MK2 after 1 hr by mobility shift electrophoresis assay
MAP kinase-activated protein kinase 2, sequence (P49137 whole entry, canonical isoform): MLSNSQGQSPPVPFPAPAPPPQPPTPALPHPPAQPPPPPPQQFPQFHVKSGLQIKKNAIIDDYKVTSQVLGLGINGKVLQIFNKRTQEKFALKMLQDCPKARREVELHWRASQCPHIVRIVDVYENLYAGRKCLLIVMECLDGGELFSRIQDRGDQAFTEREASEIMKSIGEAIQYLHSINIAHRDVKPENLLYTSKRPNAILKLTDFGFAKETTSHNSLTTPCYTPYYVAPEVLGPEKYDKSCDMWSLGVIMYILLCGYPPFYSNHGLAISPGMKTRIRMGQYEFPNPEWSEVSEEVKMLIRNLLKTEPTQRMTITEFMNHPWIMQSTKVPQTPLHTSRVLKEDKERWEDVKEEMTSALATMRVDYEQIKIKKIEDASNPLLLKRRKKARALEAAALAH

[34] = target: Casein kinase I isoform gamma-1 (Homo sapiens, UniProt Q9HCP0); assay: Inhibition of CK1gamma1 after 1 hr by mobility shift electrophoresis assay
Casein kinase I isoform gamma-1, sequence (Q9HCP0 whole entry, canonical isoform): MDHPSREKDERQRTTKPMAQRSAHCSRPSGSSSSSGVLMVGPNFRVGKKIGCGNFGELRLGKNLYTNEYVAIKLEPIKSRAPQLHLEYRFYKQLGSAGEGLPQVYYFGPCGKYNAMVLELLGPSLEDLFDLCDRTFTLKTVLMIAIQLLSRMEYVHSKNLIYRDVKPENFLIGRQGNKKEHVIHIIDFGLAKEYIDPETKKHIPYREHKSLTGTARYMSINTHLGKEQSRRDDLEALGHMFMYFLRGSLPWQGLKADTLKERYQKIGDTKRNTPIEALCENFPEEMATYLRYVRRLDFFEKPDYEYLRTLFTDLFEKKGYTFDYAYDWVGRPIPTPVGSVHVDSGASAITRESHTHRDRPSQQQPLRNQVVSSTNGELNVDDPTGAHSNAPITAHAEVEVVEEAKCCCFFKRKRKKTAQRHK

LNCaP = assay: Cytotoxicity against human LNCAP cells after 3 days by MTS assay; type: functional, cell-based; conditions: 72 h
Aurora kinase B = Aurora kinase B (Homo sapiens, UniProt Q96GD4); assay: Inhibition of Aurora B after 1 hr by mobility shift electrophoresis assay
Aurora kinase B, sequence (Q96GD4 whole entry): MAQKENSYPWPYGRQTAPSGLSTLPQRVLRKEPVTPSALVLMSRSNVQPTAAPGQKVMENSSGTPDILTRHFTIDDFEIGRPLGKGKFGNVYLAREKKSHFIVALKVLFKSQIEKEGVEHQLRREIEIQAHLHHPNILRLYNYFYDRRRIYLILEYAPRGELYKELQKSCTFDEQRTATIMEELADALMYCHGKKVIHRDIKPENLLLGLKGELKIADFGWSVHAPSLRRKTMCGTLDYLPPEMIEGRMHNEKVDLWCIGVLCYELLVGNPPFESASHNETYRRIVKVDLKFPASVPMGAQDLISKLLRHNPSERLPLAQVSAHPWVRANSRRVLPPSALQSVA

[35] = target: T1, Serine/threonine-protein kinase mTOR; assay: Inhibition of mTOR complex 2 in human PC3MM2 cells assessed as suppression of P-AKT phosphorylation at S473 treated for 6 hrs by immunoblotting analysis; type: cell-based
[36] = target: Platelet-derived growth factor receptor alpha (Homo sapiens, UniProt P16234); assay: Inhibition of PDGFRalpha after 1 hr by mobility shift electrophoresis assay
[37] = target: Vascular endothelial growth factor receptor 2 (Homo sapiens, UniProt P35968); assay: Inhibition of VEGFR2 after 1 hr by mobility shift electrophoresis assay
Vascular endothelial growth factor receptor 2, sequence (P35968 whole entry): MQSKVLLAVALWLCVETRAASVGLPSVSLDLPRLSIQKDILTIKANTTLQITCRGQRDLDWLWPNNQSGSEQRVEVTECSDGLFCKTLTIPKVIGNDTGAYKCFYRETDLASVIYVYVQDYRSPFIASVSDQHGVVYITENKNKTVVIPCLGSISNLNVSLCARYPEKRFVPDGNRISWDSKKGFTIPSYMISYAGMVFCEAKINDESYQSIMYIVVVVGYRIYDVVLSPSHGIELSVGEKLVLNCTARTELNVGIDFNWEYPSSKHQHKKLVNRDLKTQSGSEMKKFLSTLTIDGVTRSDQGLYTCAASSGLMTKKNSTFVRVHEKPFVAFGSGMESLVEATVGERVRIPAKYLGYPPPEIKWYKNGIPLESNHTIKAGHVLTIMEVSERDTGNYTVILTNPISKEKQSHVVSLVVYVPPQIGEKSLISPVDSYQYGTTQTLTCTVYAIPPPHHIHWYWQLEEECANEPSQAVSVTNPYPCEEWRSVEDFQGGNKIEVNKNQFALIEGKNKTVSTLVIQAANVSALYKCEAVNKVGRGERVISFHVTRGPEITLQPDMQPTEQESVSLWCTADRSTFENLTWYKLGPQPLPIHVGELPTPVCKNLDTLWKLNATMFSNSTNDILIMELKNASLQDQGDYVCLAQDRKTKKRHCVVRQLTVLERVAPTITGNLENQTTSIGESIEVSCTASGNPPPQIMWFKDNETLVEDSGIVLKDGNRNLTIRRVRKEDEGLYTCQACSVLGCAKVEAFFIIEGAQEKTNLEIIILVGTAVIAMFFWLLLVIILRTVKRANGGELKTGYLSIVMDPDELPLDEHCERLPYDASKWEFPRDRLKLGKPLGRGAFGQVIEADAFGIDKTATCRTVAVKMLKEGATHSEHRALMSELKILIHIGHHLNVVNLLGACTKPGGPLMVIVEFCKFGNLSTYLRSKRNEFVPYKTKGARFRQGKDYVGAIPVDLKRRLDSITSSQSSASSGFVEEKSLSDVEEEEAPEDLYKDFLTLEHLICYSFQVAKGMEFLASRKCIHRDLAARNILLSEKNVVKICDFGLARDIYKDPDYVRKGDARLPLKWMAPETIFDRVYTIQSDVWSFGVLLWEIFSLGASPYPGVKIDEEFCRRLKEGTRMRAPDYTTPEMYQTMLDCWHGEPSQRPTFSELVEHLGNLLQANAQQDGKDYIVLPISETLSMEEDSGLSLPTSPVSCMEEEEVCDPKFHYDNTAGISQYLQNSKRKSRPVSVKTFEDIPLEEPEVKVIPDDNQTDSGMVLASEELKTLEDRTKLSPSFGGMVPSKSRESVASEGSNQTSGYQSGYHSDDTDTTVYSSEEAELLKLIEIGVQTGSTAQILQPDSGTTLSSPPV

Mus musculus [38] = assay: Inhibition of mTOR complex 2 in BALB/c nu/nu mouse bearing PTEN-null human PC3MM2 xenograft tumor assessed as suppression of AKT phosphorylation at S473 at 50 mg/kg, ip administered as single dose for 4 hrs; type: functional, organism-based; set-up: dose 50 mg/kg
Mus musculus [39] = assay: Inhibition of mTOR complex 1 in BALB/c nu/nu mouse bearing PTEN-null human PC3MM2 xenograft tumor assessed as suppression of S6K phosphorylation at T389 at 50 mg/kg, ip administered as single dose for 4 hrs; type: functional, organism-based; set-up: dose 50 mg/kg
[40] = Aqueous solubility at pH 3; type: physicochemical; conditions: buffer

Structure (SMILES): CNC(=O)Nc1ccc(-c2nc(N3CCOCC3)c3cnn(C4CCN(C(=O)OC)CC4)c3n2)cc1
Activity (Mus musculus [9]): inactive
Activity (Mus musculus [38]): Active
Activity (Mus musculus [39]): Active
T/C [23]: 0.57

Structure (SMILES): CC(=O)Nc1cccc(-c2nc(N3CCOCC3)c3cnn(C4CCN(Cc5ccccc5)CC4)c3n2)c1
pIC50 [15]: 5.61

Structure (SMILES): COC(=O)N1CCC(n2ncc3c(N4CCOCC4)nc(-c4ccc(NC(=O)Nc5cccnc5)cc4)nc32)CC1
pIC50 [4]: 7.46
pIC50 [15]: 9.70
half-life at 1 µM [31]: 24 min
pIC50 (LNCaP): 7.51

Structure (SMILES): O=C(Nc1ccncc1)Nc1ccc(-c2nc(N3CCOCC3)c3cnn(C4CCN(C(=O)c5cccnc5)CC4)c3n2)cc1
pIC50 [4]: 6.26
pIC50 [15]: 9.08
half-life at 1 µM [31]: 22 min
pIC50 (LNCaP): 6.82

Structure (SMILES): CNC(=O)Nc1ccc(-c2nc(N3CCOCC3)c3cnn(C4CCN(C(=O)N(C)C)CC4)c3n2)cc1
pIC50 [15]: 8.96
half-life at 1 µM [31]: > 30 min
pIC50 (LNCaP): 6.71

Structure (SMILES): CCOC(=O)Nc1ccc(-c2nc(N3CCOCC3)c3cnn(C4CCN(Cc5ccccc5)CC4)c3n2)cc1
pIC50 [4]: 6.20
pIC50 [15]: 7.34
pIC50 (LNCaP): 5.47

Structure (SMILES): CNC(=O)Nc1ccc(-c2nc(N3CCOCC3)c3cnn(C4CCN(Cc5cccnc5)CC4)c3n2)cc1
half-life at 1 µM [31]: 12 min

Structure (SMILES): Oc1cccc(-c2nc(N3CCOCC3)c3cnn(C4CCN(Cc5cccnc5)CC4)c3n2)c1
pIC50 [15]: 8.02
half-life at 1 µM [31]: 5 min
pIC50 (LNCaP): 7.28

Structure (SMILES): O=C(Nc1ccc(-c2nc(N3CCOCC3)c3cnn(C4CCN(Cc5cccnc5)CC4)c3n2)cc1)OCCO
half-life at 1 µM [31]: 6 min

Structure (SMILES): CNC(=O)Nc1ccc(-c2nc(N3CCOCC3)c3cnn(C4CCN(C(=O)NC)CC4)c3n2)cc1
pIC50 ([15]; hek293): 8.70
pIC50 (LNCaP): 5.59

Structure (SMILES): CNC(=O)Nc1ccc(-c2nc(N3CCOCC3)c3cnn(C4CCN(C(C)=O)CC4)c3n2)cc1
pIC50 ([15]; hek293): 8.68
half-life at 1 µM [31]: 27 min
pIC50 (LNCaP): 6.09

Continued, in another order:

pIC50 [1]: < 4.30
pIC50 [2]: < 4.30
Activity [3]: inactive
pIC50 [4]: 5.99
pIC50 [5]: < 4.30
Activity [6]: inactive
pIC50 [7]: < 4.30
Activity [8]: Dose-dependent effect
pIC50 [10]: < 4.30
pIC50 [11]: < 4.30
pIC50 [14]: 5.20
pIC50 [15]: 8.37
pIC50 [16]: < 4.30
pIC50 [17]: < 4.30
pIC50 [19]: < 4.30
pIC50 [21]: < 4.30
pIC50 [22]: < 4.30
pIC50 [24]: < 4.30
pIC50 [25]: < 4.30
pIC50 [26]: < 4.30
pIC50 [27]: < 4.30
pIC50 [28]: < 4.30
pIC50 [29]: < 4.30
pIC50 [30]: < 4.30
half-life at 1 µM [31]: > 30 min
pIC50 [33]: < 4.30
pIC50 [34]: < 4.30
pIC50 (Aurora kinase B): < 4.30
Activity [35]: Dose-dependent effect
pIC50 [36]: < 4.30
pIC50 [37]: < 4.30
Structure (SMILES): COC(=O)Nc1ccc(-c2nc(N3CCOCC3)c3cnn(C4CCN(C(=O)OC)CC4)c3n2)cc1
Activity (Mus musculus [9]): inactive
Activity [12]: Dose-dependent effect
T/C [13]: 0.14
Activity [18]: Dose-dependent effect
Activity (Mus musculus [20]): Active
T/C [23]: 0.62
Activity (Mus musculus [32]): Active
pIC50 (LNCaP): 6.45

half-life at 1 µM [31]: 3 min
Structure (SMILES): CNC(=O)Nc1ccc(-c2nc(N3CCOCC3)c3cnn(C4CCN(Cc5ccccc5)CC4)c3n2)cc1

pIC50 [15]: 8.15
half-life at 1 µM [31]: 12 min
Structure (SMILES): CC(=O)Nc1ccc(-c2nc(N3CCOCC3)c3cnn(C4CCN(Cc5cccnc5)CC4)c3n2)cc1
pIC50 (LNCaP): 7.18

pIC50 [15]: 7.66
half-life at 1 µM [31]: 2 min
Structure (SMILES): CNC(=O)Nc1ccc(-c2nc(N3CCOCC3)c3cnn(C4CCN(C)CC4)c3n2)cc1
pIC50 (LNCaP): 6.13

pIC50 [4]: 7.74
pIC50 ([15]; hek293): 9.52
half-life at 1 µM [31]: 9 min
Structure (SMILES): COC(=O)N1CCC(n2ncc3c(N4CCOCC4)nc(-c4ccc(NC(=O)Nc5ccncc5)cc4)nc32)CC1
pIC50 (LNCaP): 7.22

solubility [40]: > 0.1 mg/mL
Structure (SMILES): COC(=O)N1CCC(n2ncc3c(N4CCOCC4)nc(-c4ccc(NC(=O)Nc5ccc(N6CCN(C)CC6)cc5)cc4)nc32)CC1

half-life at 1 µM [31]: 14 min
Structure (SMILES): COC(=O)Nc1ccc(-c2nc(N3CCOCC3)c3cnn(C4CCN(Cc5cccnc5)CC4)c3n2)cc1

pIC50 [15]: 9.00
half-life at 1 µM [31]: > 30 min
Structure (SMILES): COC(=O)N1CCC(n2ncc3c(N4CCOCC4)nc(-c4ccc(NC(=O)OCCO)cc4)nc32)CC1
pIC50 (LNCaP): 7.55

pIC50 [15]: 8.85
half-life at 1 µM [31]: > 30 min
Structure (SMILES): CNC(=O)Nc1ccc(-c2nc(N3CCOCC3)c3cnn(C4CCNCC4)c3n2)cc1
pIC50 (LNCaP): 5.86

pIC50 [4]: 8.22
pIC50 ([15]; hek293): 10.10
half-life at 1 µM [31]: 13 min
Structure (SMILES): COC(=O)N1CCC(n2ncc3c(N4CCOCC4)nc(-c4ccc(NC(=O)Nc5ccc(CO)cc5)cc4)nc32)CC1
pIC50 (LNCaP): > 9.00

pIC50 [15]: 9.49
half-life at 1 µM [31]: > 30 min
Structure (SMILES): CCNC(=O)Nc1ccc(-c2nc(N3CCOCC3)c3cnn(C4CCN(C(=O)OC)CC4)c3n2)cc1
pIC50 (LNCaP): 7.26
